Laboratory results from paper PMC8480782, “Efficient Dimerization Disruption of Leishmania infantum Trypanothione Reductase by Triazole-phenyl-thiazoles” (Journal of Medicinal Chemistry, 2021).
Where two headings read alike, the source gives them in different places.

Assays:
[1] = tested on: L. infantum intracellular amastigotes; test: Leishmanicidal activity in amastigote-infected THP-1 monocyte-derived macrophages; format: cell-based, Leishmania infantum
Description: (§1) THP-1 monocytes were seeded in a 48-well plate at a concentration of 5 × 10^5 cells/mL (250 μL/well) in RPMI complete medium supplemented with phorbol 12-myristate 13-acetate (PMA) (100 ng/mL). Differentiation of THP-1 monocytes to macrophages was allowed for 24 h at 37 °C and 5% CO2. THP-1-derived macrophages were infected with GFP-expressing axenic amastigotes at 5 × 10^6 parasites/mL in RPMI complete medium for 24 h (250 μL/well). Extracellular amastigotes were washed twice with PBS. The remaining extracellular parasites were challenged for 24 h with THP-1 medium supplemented with 10% horse serum (Gibco) instead of FCS. Cells were washed twice with PBS, and treatments were performed in 250 μL of fresh RPMI medium supplemented with 10% horse serum for 72 h at 37 °C and 5% CO2. Afterward, treatments were removed by two PBS washes. Lysis of infected cells was performed with 120 μL of SDS 0.005% (w/v) in PBS. After a 30 min incubation at 37 °C, lysis was stopped by adding RPMI complete medium with PI at 20 μg/mL (120 μL/well). The lysates were transferred to a 96-well plate (200 μL/well), and the GFP^+ amastigotes extracted from the infected cells were acquired by a Beckman Coulter FC500 flow cytometer. Each sample (100 μL) was acquired for 20 s.
The relative number of GFP^+ intracellular amastigotes per cell in each sample was estimated after the division of the total number of GFP+ amastigotes by the LDH activity value of the sample. Results were normalized to the vehicle-treated controls. EC50 values of intracellular amastigotes were calculated using a nonlinear regression model with GraFit 6 software (Erithacus, Horley, Surrey, U.K.). All of the assays were conducted in at least three independent experiments.

[2] = tested on: THP-1 monocyte-derived macrophages; test: Cytotoxicity in THP-1 monocyte-derived macrophages (LDH activity); format: cell-based, human; settings: Homo sapiens, THP-1; LDH activity
Description: THP-1 cells were grown in RPMI-1640 medium (Gibco, Leiden, The Netherlands) supplemented with 10% heat-inactivated FCS, antibiotics, 10 mM HEPES, 2 mM glutamine, and 1 mM sodium pyruvate, pH 7.2, at 37 °C and 5% CO2.
as §1
Cytotoxicity of THP-1 infected macrophages was determined using an in-house developed lactate dehydrogenase (LDH) activity assay. LDH activity assays from the remaining cell lysates (100 μL/well) were carried out at 37 °C in 250 μL of Tris/HCl buffer (pH 8.9, 50 mM) containing DL-lactate (840 mM), NAD^+ (450 μM), 1-methoxyphenazine methosulfate (45 μM), and nitro blue tetrazolium chloride (40 μM). The color intensity of the generated formazan dye was monitored at 570 nm using an EnSpire Multimode Plate Reader (PerkinElmer, Waltham, MA). CC50 values were calculated using a nonlinear regression model with GraFit 6 software (Erithacus, Horley, Surrey, U.K.).

TbTryR = target: T1, TbTryR (Trypanosoma brucei brucei, UniProt P39051); test: TryR oxidoreductase activity, DTNB-coupled assay (TbTryR); format: biochemical
T1 construct: HIS; made in house; host or cells: E. coli
Text: The DNA coding sequences for Homo sapiens GR, T. brucei TryR, and T. congolense TryR were polymerase chain reaction (PCR)-amplified and cloned in the pRSETA plasmid. The DNA coding for hGR (transcript variant 1; NCBI Reference Sequence: NM_000637.5) was purchased from GeneScript. Genomic DNA from T. congolense parasites was kindly provided by Dr. Stefan Magez (University of Vrije, Brussels). Genomic DNA from the T. brucei S16 cell line was kindly provided by José M. Pérez-Victoria. Instituto de Parasitología y Biomedicina “López—Neyra” CSIC. HIS-tagged recombinant T. brucei and T. congolense TryRs (TbTryR and TcoTryR, respectively) were purified from E. coli as already explained for LiTryR.
TryR oxidoreductase activity was determined spectrophotometrically using a modified version of the DTNB-coupled assay described by Hamilton et al.[52] Briefly, reactions were carried out at 26 °C in 250 μL of N-(2-hydroxyethyl)piperazine-N′-ethanesulfonic acid (HEPES) buffer (pH 7.5, 40 mM) containing ethylenediaminetetraacetic acid (EDTA) (1 mM), NADP^+ (30 μM), DTNB (25 μM), TS2 (1 μM), NADPH (150 μM), glycerol (0.02%), DMSO (1.75%), and recombinant TryR (7 nM). […] Reactions were started by addition of a mixture of NADPH and TS2.
TryR oxidoreductase activity was monitored at 26 °C by an increase in absorbance at 412 nm in an EnSpire Multimode Plate Reader (PerkinElmer, Waltham, MA). […] (TNB) concentration was obtained by multiplying the absorbance values by 100 (50 μM TNB generates 0.5 arbitrary units of absorbance at 412 nm). In this DTNB-coupled assay, one molecule of T(SH)2 reduces one molecule of DTNB, producing two TNB molecules. All of the assays were conducted in at least three independent experiments. Data were analyzed using a nonlinear regression model with GraFit 6 software (Erithacus, Horley, Surrey, U.K.).

[3] = Leishmania infantum, THP-1, 72 h, amastigote-infected THP-1 macrophages, 72 h, read-out: EC50 intracellular amastigotes
[4] = read-out: IC50, oxidoreductase activity of TbTryR
[5] = Leishmania infantum, THP-1, 72 h, read-out: EC50 intracellular amastigotes, amastigote-infected THP-1 macrophages, 72 h

T1 sequence (P39051 whole entry): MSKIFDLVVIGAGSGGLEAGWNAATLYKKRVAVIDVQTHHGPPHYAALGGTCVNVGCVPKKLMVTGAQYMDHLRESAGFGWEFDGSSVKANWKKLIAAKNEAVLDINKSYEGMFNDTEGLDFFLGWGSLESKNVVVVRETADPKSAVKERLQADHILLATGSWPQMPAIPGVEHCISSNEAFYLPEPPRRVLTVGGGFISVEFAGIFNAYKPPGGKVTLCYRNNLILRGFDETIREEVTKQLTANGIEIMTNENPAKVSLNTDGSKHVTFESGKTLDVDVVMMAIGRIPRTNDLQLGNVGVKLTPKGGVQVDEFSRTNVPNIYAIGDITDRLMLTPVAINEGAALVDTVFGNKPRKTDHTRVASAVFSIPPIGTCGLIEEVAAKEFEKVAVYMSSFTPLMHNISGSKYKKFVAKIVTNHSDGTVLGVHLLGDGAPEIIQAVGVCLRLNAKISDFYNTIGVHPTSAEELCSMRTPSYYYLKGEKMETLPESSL

## NCCCCc1cn(-c2ccc(-c3nc(CCc4ccc5c(c4)CCCN5)cs3)c(OCCN3CCNC3=O)c2)nn1.O=C(O)C(F)(F)F.O=C(O)C(F)(F)F [12q]
[1]; [3]
  EC50: > 75 µM
[2]
  EC50: > 75 µM

## NCCCCc1cn(-c2ccc(-c3nc(-c4ccccc4)cs3)c(OCCN3CCNC3=O)c2)nn1.O=C(O)C(F)(F)F [12n]
TbTryR; [4]
  IC50: 12.5 ± 1.9 µM

## NCCCCc1cn(-c2ccc(-c3nc(-c4ccccc4)c(-c4ccccc4)s3)c(OCCN3CCNC3=O)c2)nn1.O=C(O)C(F)(F)F [19a, 1-(2-(5-(4-(4-Ammoniobutyl)-1H-1,2,3-triazol-1-yl)-2-(4,5-diphenylthiazol-2-yl)phenoxy)ethyl)imidazolidin-2-one 2,2,2-Trifluoroacetate]
TbTryR; [4]
  IC50: 7.3 ± 0.6 µM

## NCCCCc1cn(-c2ccc(-c3nc(-c4cccc(-c5csc(-c6ccc(-n7cc(CCCCN)nn7)cc6OCCN6CCNC6=O)n5)c4)cs3)c(OCCN3CCNC3=O)c2)nn1.O=C(O)C(F)(F)F.O=C(O)C(F)(F)F [compound 22, 1,1′-((((1,3-Phenylenebis(thiazole-4,2-diyl))bis(5-(4-(4-ammoniobutyl)-1H-1,2,3-triazol-1-yl)-2,1-phenylene))bis(oxy))bis(ethane-2,1-diyl))bis(imidazolidin-2-one)bis(2,2,2-trifluoroacetate)]
TbTryR; [4]
  IC50: 1 ± 0.3 µM
[1]; [5]
  EC50: 22 µM
[1]; THP-1 / intracellular amastigotes
  SI (intracellular amastigotes): 2.2
[1]; read-out: EC50 intracellular amastigotes, amastigote-infected THP-1 macrophages, 72 h
  EC50: 22.2 ± 6.4 µM
[2]
  EC50: 48.4 ± 14.5 µM

## NCCNCc1nccn1-c1ccc(-c2nc(CCc3ccc(-c4ccccc4)cc3)cs2)c(OCCN2CCNC2=O)c1 [compound 3, reference compound]
[1]; [3]
  EC50: > 75 µM
[2]
  EC50: 15.5 ± 1.8 µM

## NCCCc1cn(-c2ccc(-c3nc(CCc4ccc(-c5ccccc5)cc4)cs3)c(OCCN3CCNC3=O)c2)nn1.O=C(O)C(F)(F)F [12i]
[1]; [3]
  EC50: 54.5 µM
[1]; amastigote-infected THP-1 macrophages, 72 h, read-out: EC50 intracellular amastigotes
  EC50: 54.4 ± 15.5 µM
[2]
  EC50: > 75 µM

## NCCNCc1nccn1-c1ccc(-c2nc(CCc3ccc4ccccc4c3)cs2)c(OCCN2CCNC2=O)c1 [compound 2, reference compound]
[1]; [3]
  EC50: > 75 µM
[2]
  EC50: 27.9 ± 4.4 µM

## NCCCCc1cn(-c2ccc(-c3nc(-c4ccc(Oc5ccccc5)cc4)c(-c4ccccc4)s3)c(OCCN3CCNC3=O)c2)nn1.O=C(O)C(F)(F)F [19c, 1-(2-(5-(4-(4-Ammoniobutyl)-1H-1,2,3-triazol-1-yl)-2-(4-([4-phenyloxyphenyl]-1-yl)-5-phenylthiazol-2-yl)phenoxy)ethyl)imidazolidin-2-one 2,2,2-Trifluoroacetate]
[1]; [5]
  EC50: > 75 µM
[2]
  EC50: > 75 µM

## NCCCCc1cn(-c2ccc(-c3nc(CCc4ccc(-c5ccccc5)cc4)cs3)c(OCCN3CCNC3=O)c2)nn1.O=C(O)C(F)(F)F [12c, 1-(2-(2-(4-(2-([1,1′-Biphenyl]-4-yl)ethyl)thiazol-2-yl)-5-(4-(4-ammoniumbutyl)-1H-1,2,3-triazol-1-yl)phenoxy)ethyl)imidazolidin-2-one 2,2,2-Trifluoroacetate]
TbTryR; [4]
  IC50: 10 ± 2.5 µM
[1]; [5]
  EC50: 46.5 ± 1.5 µM
[2]
  EC50: > 75 µM

## NCCCCc1cn(-c2ccc(-c3nc(CCc4ccc5ccccc5c4)cs3)c(OCCN3CCNC3=O)c2)nn1.O=C(O)C(F)(F)F [12b, 1-(2-(5-(4-(4-Ammoniumbutyl)-1H-1,2,3-triazol-1-yl)-2-(4-(2-(naphthalen-2-yl)ethyl)thiazol-2-yl)phenoxy)ethyl)imidazolidin-2-one 2,2,2-Trifluoroacetate]
TbTryR; [4]
  IC50: 9.7 ± 2.1 µM
[1]; [5]
  EC50: > 75 µM
[2]
  EC50: > 75 µM

## NCCCCc1cn(-c2ccc(-c3nc(CCc4ccc5c(c4)CCO5)cs3)c(OCCN3CCNC3=O)c2)nn1.O=C(O)C(F)(F)F [12r]
TbTryR
  IC50: 15 ± 2.9 µM
